Assay results from patent US9572801B2, “Tetrahydronaphthyridinyl propionic acid derivatives and uses thereof” (SciFluor Life Sciences, Inc., priority 2015, dated 2017).

How the values were obtained:
αvβ8 = αvβ8 (Homo sapiens, UniProt P06756+P26012); test: αv integrin binding assay, αVβ8-LAP-TGF β1 interaction (integrin coupled beads, flow cytometry)
Protocol: (§1) αVβ6/αVβ8—LAP-TGF β1 Binding Assay
(§2) Integrins αVβ6/αVβ8 coupled beads are treated with an αVβ6/αVβ8 ligand (e.g., LAP TGF-β1 (LAP1)), and the complex is incubated with a primary antibody (Ab), which can be labeled for detection (e.g., fluorescently labeled), and optionally with a secondary antibody, which can be labeled for detection (e.g., fluorescently labeled). Reaction between integrin coupled beads and the ligand was considered as the full reaction, and reaction without the ligand or a compound of the disclosure was considered as the blank reaction. The complex is analyzed, e.g., by either plate reader or Flow Cytometer, to determine modulation of binding between αVβ6/αVβ8 and the ligand (e.g., LAP-TGF Pβ1) by the compounds of the present application. […]
(§3) The integrin coupled Dyna beads were allowed to interact with respective ligands. The integrin-ligand complex was detected with either Primary/Secondary Antibody conjugated with Fluorescein Isothiocyanate (FITC). […] Fluorescence was measured by Flow Cytometry analysis.
(§4) αVβ6/αVβ8—LAP-TGF β1 interaction: αVβ6/αVβ8 coupled beads were treated with the ligand LAP TGF-β1 (LAP1) at room temperature for 3 hours. […] The complex was analyzed by either plate reader or Flow Cytometer. […]
(§5) Quantification: The samples were acquired using a BD FACSCalibur system and analyzed with BD Cell quest pro Version 6. […]

αvβ6 = αvβ6 (Homo sapiens, UniProt P06756+P18564); test: αv integrin binding assay, αVβ6-LAP-TGF β1 interaction (integrin coupled beads, flow cytometry); conditions: ligand LAP-TGF β1 (LAP1) 10 nM; integrin 10 nM
Protocol: as §1, §2, §3, §4, §5

αvβ8, sequence (P06756 31-992 limits assumed): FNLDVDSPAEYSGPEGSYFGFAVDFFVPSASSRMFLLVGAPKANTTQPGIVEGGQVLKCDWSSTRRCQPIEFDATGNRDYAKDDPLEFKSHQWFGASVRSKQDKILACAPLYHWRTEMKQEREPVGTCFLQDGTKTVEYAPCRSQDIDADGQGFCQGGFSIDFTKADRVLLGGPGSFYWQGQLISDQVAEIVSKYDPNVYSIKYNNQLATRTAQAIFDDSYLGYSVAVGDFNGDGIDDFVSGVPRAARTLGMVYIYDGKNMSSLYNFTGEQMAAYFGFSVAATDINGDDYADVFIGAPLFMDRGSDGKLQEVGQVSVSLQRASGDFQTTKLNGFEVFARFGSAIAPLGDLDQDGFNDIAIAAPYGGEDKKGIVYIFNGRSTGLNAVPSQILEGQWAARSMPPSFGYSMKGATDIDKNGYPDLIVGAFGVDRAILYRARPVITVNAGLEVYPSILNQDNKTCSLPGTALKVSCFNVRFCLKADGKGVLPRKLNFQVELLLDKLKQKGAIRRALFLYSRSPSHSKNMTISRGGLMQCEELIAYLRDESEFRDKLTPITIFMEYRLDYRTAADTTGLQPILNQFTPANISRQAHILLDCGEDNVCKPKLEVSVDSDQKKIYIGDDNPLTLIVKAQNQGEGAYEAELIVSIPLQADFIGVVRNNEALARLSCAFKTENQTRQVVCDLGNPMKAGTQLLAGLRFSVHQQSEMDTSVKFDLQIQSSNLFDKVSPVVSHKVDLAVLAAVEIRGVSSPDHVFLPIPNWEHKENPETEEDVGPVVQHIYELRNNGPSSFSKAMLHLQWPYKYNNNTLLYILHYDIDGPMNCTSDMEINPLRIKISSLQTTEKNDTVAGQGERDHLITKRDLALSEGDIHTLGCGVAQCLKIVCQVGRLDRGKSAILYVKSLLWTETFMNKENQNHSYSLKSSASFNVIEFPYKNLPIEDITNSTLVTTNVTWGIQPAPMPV
αvβ8, sequence (P26012 43-684 limits assumed): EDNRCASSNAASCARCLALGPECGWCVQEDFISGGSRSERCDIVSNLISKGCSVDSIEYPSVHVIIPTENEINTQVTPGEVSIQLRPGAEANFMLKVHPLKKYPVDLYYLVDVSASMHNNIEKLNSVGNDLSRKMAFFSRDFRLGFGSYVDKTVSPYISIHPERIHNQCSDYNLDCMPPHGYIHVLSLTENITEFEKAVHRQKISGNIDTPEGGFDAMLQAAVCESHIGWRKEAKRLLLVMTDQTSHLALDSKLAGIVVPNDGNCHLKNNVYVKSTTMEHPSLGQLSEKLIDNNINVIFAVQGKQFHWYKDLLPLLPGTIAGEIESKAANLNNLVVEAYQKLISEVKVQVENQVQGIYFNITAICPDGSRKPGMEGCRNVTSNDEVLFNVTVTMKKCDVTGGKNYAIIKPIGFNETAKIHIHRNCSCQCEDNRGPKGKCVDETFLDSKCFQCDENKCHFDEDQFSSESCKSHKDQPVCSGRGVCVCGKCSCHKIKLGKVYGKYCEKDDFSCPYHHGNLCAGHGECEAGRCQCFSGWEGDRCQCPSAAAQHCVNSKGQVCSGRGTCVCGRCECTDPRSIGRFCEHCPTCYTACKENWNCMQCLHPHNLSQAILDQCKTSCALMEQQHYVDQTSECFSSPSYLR
αvβ6, sequence (P06756 31-992 limits assumed): as the sequence (P06756 31-992 limits assumed) above
αvβ6, sequence (P18564 22-707 limits assumed): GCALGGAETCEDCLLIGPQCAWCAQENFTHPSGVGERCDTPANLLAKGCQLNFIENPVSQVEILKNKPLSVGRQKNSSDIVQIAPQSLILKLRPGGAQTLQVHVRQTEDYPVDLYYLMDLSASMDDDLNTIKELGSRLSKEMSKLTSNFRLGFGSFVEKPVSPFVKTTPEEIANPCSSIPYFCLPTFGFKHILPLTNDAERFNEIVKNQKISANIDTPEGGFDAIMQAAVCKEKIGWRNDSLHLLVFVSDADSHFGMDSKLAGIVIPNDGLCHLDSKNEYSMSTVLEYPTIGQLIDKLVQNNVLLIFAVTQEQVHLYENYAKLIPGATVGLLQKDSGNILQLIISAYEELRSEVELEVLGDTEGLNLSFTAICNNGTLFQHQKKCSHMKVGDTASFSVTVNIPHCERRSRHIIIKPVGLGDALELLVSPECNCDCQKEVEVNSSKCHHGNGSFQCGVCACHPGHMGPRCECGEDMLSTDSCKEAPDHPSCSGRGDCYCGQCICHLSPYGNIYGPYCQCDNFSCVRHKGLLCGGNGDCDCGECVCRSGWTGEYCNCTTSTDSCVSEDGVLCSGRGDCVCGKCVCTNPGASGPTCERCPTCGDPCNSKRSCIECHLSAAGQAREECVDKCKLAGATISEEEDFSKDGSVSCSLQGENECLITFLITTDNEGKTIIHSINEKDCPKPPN

IC50 (αvβ8; ligand LAP-TGF β1 (LAP1) 20 nM, integrin 10 nM): 17.6 nM
αvβ8/αvβ6 (αvβ8; ratio of αvβ8 IC50 to αvβ6 IC50): 1.83
IC50 (αvβ6): 9.57 nM
Compound: COc1ccc([C@H](CC(=O)O)N2CCN(CCCc3ccc4c(n3)NCCC4)C2=O)cn1 [A1, (S)-3-(6-methoxypyridin-3-yl)-3-(2-oxo-3-(3-(5,6,7,8-tetrahydro-1,8-naphthyridin-2-yl)propyl)imidazolidin-1-yl)propanoic acid]
